Source: BigSolDB 2.1

NC(N)=O
solubility (mole fraction)
Settings | in ethanol | in isobutanol | in isopentanol | in isopropanol | in methanol | in n-butanol | in n-pentanol | in n-propanol | in water
293.15 K | 0.0395 | 0.017 | 0.0146 | 0.0253 | 0.0845 | 0.0163 | 0.0137 | 0.0246 | 0.252
303.15 K | 0.0548 | 0.0242 | 0.0162 | 0.0306 | 0.104 | 0.0209 | 0.0183 | 0.0402 | 0.294
318.15 K | 0.0874 | 0.0302 | 0.026 | 0.0425 | 0.165 | 0.0292 | 0.0241 | 0.0384 | 0.36
333.15 K | 0.127 | 0.0469 | 0.0368 | 0.058 | 0.225 | 0.0412 | 0.0354 | 0.0722 | 0.41
343.15 K | 0.155 | 0.0529 | 0.0451 | 0.0669 | 0.266 | 0.0504 | 0.0424 | 0.0704 | 0.465
